Earlier results, collected in US7803400B2, “Artificial low-density lipoprotein carriers for transport of substances across the blood-brain barrier” (Blanchette Rockefeller Neurosciences Institute, priority 2002, dated 2010).

Assays:
[1] = test system: PKC
[2] = target: T1, PKCC (Homo sapiens, UniProt Q02156)
T1 sequence (Q02156 1-737): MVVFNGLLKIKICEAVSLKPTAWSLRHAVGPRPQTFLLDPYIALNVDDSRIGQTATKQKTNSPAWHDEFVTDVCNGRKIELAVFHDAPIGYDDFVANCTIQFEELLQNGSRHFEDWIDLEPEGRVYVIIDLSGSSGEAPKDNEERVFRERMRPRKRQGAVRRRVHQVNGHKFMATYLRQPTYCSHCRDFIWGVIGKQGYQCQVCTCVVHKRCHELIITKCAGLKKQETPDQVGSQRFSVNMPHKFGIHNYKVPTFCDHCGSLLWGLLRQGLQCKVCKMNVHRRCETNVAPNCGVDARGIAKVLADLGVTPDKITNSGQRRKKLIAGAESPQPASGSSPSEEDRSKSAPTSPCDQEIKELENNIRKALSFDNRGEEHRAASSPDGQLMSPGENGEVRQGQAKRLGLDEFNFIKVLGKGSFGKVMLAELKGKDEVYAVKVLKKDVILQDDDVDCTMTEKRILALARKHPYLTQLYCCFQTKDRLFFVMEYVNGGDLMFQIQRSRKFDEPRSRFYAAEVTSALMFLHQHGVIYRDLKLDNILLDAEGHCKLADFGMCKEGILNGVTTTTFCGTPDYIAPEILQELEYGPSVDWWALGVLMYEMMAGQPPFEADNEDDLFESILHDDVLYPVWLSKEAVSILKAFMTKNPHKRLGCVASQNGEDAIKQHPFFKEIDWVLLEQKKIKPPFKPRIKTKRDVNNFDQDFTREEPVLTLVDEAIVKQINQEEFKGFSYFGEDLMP

[3] = test system: PKC in K562 cells
[4] = test system: cyclin dependent kinase 2 (Cdk2); details: at 5 ng/ml
[5] = test system: murine leukemias and solid tumors

CCCCCCCC(=O)O[C@H]1/C(=C/C(=O)OC)C[C@H]2C[C@H](CO)OC(=O)C[C@H](O)CC3CCC[C@H](C[C@@H]4CCO[C@H](/C=C/C(C)(C)[C@]1(O)O2)O4)O3 [Analog 1]
potency relative to bryostatin-1 [1]: about 100 times
Ki ([1]; read-out: PKC Affin): 0.25 nM

CCCCCC1CC1CC1CC1CCCCCCCC(=O)O (stereo not drawn) [DCP-LA, 2-[(2-pentylcyclopropyl)methyl]cyclopropaneoctanoic acid]
concentration of maximal effect on PKC activation [2]: 100 nM

Gnidimacrin
concentration at which it acts as PKC activator [3]: ≈ 3 nM
inhibition of Cdk2 [4]: 100%
concentrations of potent antitumor activity [5]: 0.1 to 1 nM
